What is called EC50 is the concentration giving half of the maximal effect.

The test system of one test is mitochondrial complex I. Briefly: Spectrophotometric analysis of complex I activity (NADH oxidation). The class given is biochemical, rat. The procedure:
(§1) The animal was then decapitated in order to collect from the brain either the cortex or the striatum, which were quickly placed in a Potter Elvejhem® containing 6 ml of extraction buffer at 4° C. (250 mM sucrose, 40 mM KCl, 2 mM EGTA, lmg/ml BSA, 20 mM Tris, pH=7.2). This mixture was homogenized to break open the cells and release the mitochondria and then centrifuged at 2000 g for 8 minutes to remove the larger membrane debris and the nuclei from the pellet. The supernatant was then recovered and centrifuged at 13,000 g for 11 minutes. The supernatant was discarded while the pellet containing a mitochondria-rich fraction was resuspended in 500 μl of respiration buffer at 4° C. (300 mM D-mannitol, 10 mM KCl, 10 mM KH2PO4, 5 mM MgCl2, pH=7.2). […]
The kinetics of the oxidation reaction of NADH into NAD+ at 340 nm at 37° C. were continuously monitored by spectrophotometry using a JASCO V-530 spectrophotometer or a TECAN 1000M Infinite plate reader, set to a wavelength of 340 nm for 3 min. The amount of mitochondria extract to obtain the maximum activity introduced into the reaction volume was 100 μg with the spectrophotometer and 10 μg with the reader. […] The slope of the kinetics was then measured. […] The inhibition percentage was then calculated.

In test [1] the test system is respiratory chain complexes II-V of rat cerebral cortex mitochondria. Put plainly: Respiratory control after induction of complex II by succinate and inhibition of complex I by rotenone. It counts as biochemical. Particulars: 1 mM, succinate. The procedure: as §1
Added to the polarography chamber (Hansatech) were 30 μl of mitochondria solution (0.2 mg), 460 μL of respiration buffer, 5 μl of test compound solution (meaning MPP+ or furosemide pyridinium) (or its solubilizing solvent). […] The effect of the compound on respiratory control was evaluated (ratio of stage 3 to 4), which corresponds to the coupling of the respiratory chain, or in other words the ATP synthesis at complex V and the oxygen consumption due to complexes I to IV. The results are expressed as percentages of the value measured for mitochondria not treated with the test compound (but treated with the solubilizing solvent). […]

The subject of test [2] is mitochondria isolated from rat cerebral cortex. Put plainly: Respiratory control (oxygen consumption, malate/pyruvate) of isolated cerebral cortex mitochondria. It counts as biochemical. Particulars: increasing concentration. On the procedure: as §1
Added to the polarography chamber (Hansatech) were 30 μl of mitochondria solution (0.2 mg), 460 μL of respiration buffer, 5 μl of test compound solution (meaning MPP+ or furosemide pyridinium) (or its solubilizing solvent). […] The effect of the compound on respiratory control was evaluated (ratio of stage 3 to 4), which corresponds to the coupling of the respiratory chain, or in other words the ATP synthesis at complex V and the oxygen consumption due to complexes I to IV. The results are expressed as percentages of the value measured for mitochondria not treated with the test compound (but treated with the solubilizing solvent).

The subject of another test is caspase-8. Put plainly: Caspase-8 activity (Ac-IETD-AFC cleavage) in SH-SY5Y cells. The class given is cell-based, human. Particulars: 1 mM, 6 h (+24 h without MPP+). The procedure:
Measurement of the activities of the various caspases is based on the ability of the caspases to cleave specific fluorescent substrates: Ac-DEVD-AFC for caspase-3, Ac-IETD-AFC for caspase-8, or Ac-LEHD-AFC for caspase-9. SH-SY5Y neuronal cells were incubated in 48-well plates with either furosemide pyridinium (1 mM) for 96 h or with MPP+ (1 mM) for 6 h, then 24 h of incubation with no MPP+. After incubation, the cells were trypsinized, then rinsed with PBS and counted, then harvested in 100 μl of buffer containing 30 mM HEPES, 0.3 mM EDTA, 100 mM NaCl, 0.15% Triton X-100, and 10 mM DTT. The cell extract was then incubated for 1 hour at 37° C. with the specific substrate (100 μM) in a 96-well plate. Fluorescence was measured at λex400 nm and λem505 nm in a fluorescence detection plate reader (TECAN Infinite M1000) (Yue et al., supra). The results were expressed as percentages relative to the measured activity of cells cultured under the same conditions and not subjected to any treatment.

A further test concerns SH-SY5Y neuronal cells. Briefly: Cell viability test in MTT. It counts as cell-based, human. The procedure:
Cells from SH-SY5Y human neuroblastomas were cultured in a DMEM medium containing 4.5 g·L^−1 glucose, 10% fetal calf serum, and 1% penicillin/streptomycin, and placed in an incubator at 37° C. with 7% CO2.
In the various experiments, the SH-SY5Y cells were seeded at a density of 4×10^4 cells/mL. 24 h after seeding, the cells were exposed to the various test compounds at 37° C. for 24 h, 48 h, 72 h, or 96 h.
This test consisted of rapidly measuring cellular metabolic activity in the presence of the study compound at different concentrations, in order to conduct a dose-response study. To do this, the tetrazolium salt MTT, 3-(4,5-dimethylthiazol-2-yl)-2,5-diphenyltetrazolium bromide (Amoroso et al., Biochim Biophys Acta, 1999, 1452(2):151-60), was placed in contact with the cells. MTT is reduced to formazan by living cells that have the capacity to metabolize it, unlike dead cells. To conduct this test, SH-SY5Y neuronal cells in 48-well plates were incubated for 24 h, 48 h, 72 h, and 96 h, with furosemide pyridinium at concentrations ranging from 0 to 1000 μM. Then MTT (0.5 mg/ml final) was added to each well and incubated at 37° C. for 2 h. At the end of incubation, after carefully removing the medium, DMSO was added (200 μL) to dissolve the cell membranes and the formazan crystals formed by the living cells. The toxicity of the molecule was evaluated by determining the amount of reduced MTT, doing so by measuring the absorbance at 550 nm as this value is proportional to the number of living cells. The results were expressed as a function of the values obtained for cells treated only with the solvent used to dissolve the compound of interest. To compare the toxicity of furosemide pyridinium to that of MPP+, the cells were incubated in the presence of MPP+ (0 to 1000 μM) for 6 h. The culture medium was replaced and the cells were incubated at 37° C. for an additional 24 h (no MPP+). Cell survival was measured at the end of these 24 hours of incubation as described above. When evaluating the effect of different concentrations of α-tocopherol (vitamin E), a membrane antioxidant, the cells were pretreated for 24 h with this antioxidant before being exposed to furosemide pyridinium at a concentration of 0.5 mM under the same experimental conditions as above.

The next test relates to α-synuclein. Put plainly: Cellular accumulation of α-synuclein (Western blot) in SH-SY5Y cells. It counts as cell-based, human. Particulars: 1 mM, 6 h incubation (+24 h without MPP+). The procedure: Cells were incubated under the same conditions as above with furosemide pyridinium (1 mM, incubation: 96 h) and MPP+ (1 mM, incubation: 6 h, wait 24 h). After incubation, the cells were trypsinized, rinsed with PBS, counted, then harvested in 100 μl of buffer containing: 250 mM sucrose; 70 mM KCl; 137 mm NaCl; 4.3 mm NaH2PO4; 1.4 mm KH2PO4, pH 7.2; and […] digitonin. Incubation at 4° C. was then conducted for 5 minutes before centrifuging at 13,000 g for 5 minutes to separate the cytosolic and lysosomal fraction from the mitochondrial fraction. Deposits of cytosolic fraction in the Western blot were adjusted according to the number of cells. The protein samples were diluted in 4× Laemmli and were then heated for 3 minutes at 95° C. to denature. They were loaded into the wells of gel. In addition to the samples, a molecular weight marker (Fermentas) was deposited in the gel. […] The transfer was carried out on PVDF membrane. The transfer was done in transfer buffer (25 mM Tris, 192 mM glycine, 10% methanol) overnight at 4° C. and 30V or for 2 hours at 4° C. and 80V. […] Then the membranes were immunolabeled for 1.5 h at room temperature with a primary antibody diluted in 1×PBS/0.2% Tween/3% milk. […] The primary antibody used was anti-α-synuclein, 1:500 (visualized with an anti-rabbit secondary antibody, 1:10,000).
Background: A western blot detects proteins with antibodies after separation by electrophoresis.

As to `Clc1ccc(-[n+]2ccccc2)cc1.[Cl-]` [1-(4-chlorophenyl) pyridinium, 1-(4-chlorophenyl) pyridinium chloride], the “inhibition of complex I activity” value in the test with mitochondrial complex I (concentration not given) was 95%.
In the case of `Oc1ccc[n+](-c2ccc(Cl)cc2)c1.[Cl-]` [1-(4-chlorophenyl)-3-hydroxypyridinium, 1-(4-chlorophenyl)-3-hydroxypyridinium chloride], the “inhibition of complex I activity” value in the test on mitochondrial complex I (0.2 mM) is given as “complete inhibition”.
For the compound `C[n+]1ccc(-c2ccccc2)cc1` [MPP+, reference compound], in test [1], the “respiratory control of cortex mitochondria after induction by complex II” value was “not modified”. Further, the “respiratory control of cerebral cortex mitochondria induced by malate/pyruvate” value in test [2] is given as “diminished”. Moreover, the “change in caspase-8 activity” value in the test on caspase-8 is recorded as “did not induce significant changes”. Further, the cell death entry with SH-SY5Y neuronal cells (1 mM, 6 h incubation (+24 h without MPP+)) is on record as “massive cell death”. In the test with SH-SY5Y neuronal cells (6 h incubation (+24 h without MPP+), read-out: EC50 (cell survival)), the concentration giving a half-maximal response (EC50) amounted to 386 ± 19.2 µM. The “increase in the total amount of α-synuclein compared to control cells” value in the test on α-synuclein came out at 319%.
For the compound `Cc1c(C)c2c(c(C)c1O)CC[C@@](C)(CCC[C@H](C)CCC[C@H](C)CCCC(C)C)O2` [α-tocopherol], the “concentration at which the protective effect becomes visible” value in the test with SH-SY5Y neuronal cells (24 h pretreatment, then 0.5 mM furosemide pyridinium) was 0.1 mg/mL. Moreover, in the test on SH-SY5Y neuronal cells (24 h pretreatment, then 0.5 mM furosemide pyridinium 96 h), the “cell survival rate after 24 h pretreatment before 0.5 mM furosemide pyridinium” value is given as “increased the cell survival rate in a dose-dependent manner”. Further, the “increase of cell survival, α-tocopherol alone” value in the test on SH-SY5Y neuronal cells (pretreatment 1 μg/mL, without furosemide pyridinium) came to 20%. For the same compound, in the test with SH-SY5Y neuronal cells (pretreatment 0.01 and 0.1 μg/mL, without furosemide pyridinium), the “change of cell survival, α-tocopherol alone” value is “did not change cell survival”.

(Values after US9744250B2, “Chemical model of a neurodegenerative disease, method for preparation and uses of same” (priority 2012, dated 2017).)
